The target of this assay is T1, human orexin type 2 receptor (hOX2R) (Homo sapiens, UniProt O43614).
T1 construct: expressed in transfected cells
T1 sequence (O43614 1-444): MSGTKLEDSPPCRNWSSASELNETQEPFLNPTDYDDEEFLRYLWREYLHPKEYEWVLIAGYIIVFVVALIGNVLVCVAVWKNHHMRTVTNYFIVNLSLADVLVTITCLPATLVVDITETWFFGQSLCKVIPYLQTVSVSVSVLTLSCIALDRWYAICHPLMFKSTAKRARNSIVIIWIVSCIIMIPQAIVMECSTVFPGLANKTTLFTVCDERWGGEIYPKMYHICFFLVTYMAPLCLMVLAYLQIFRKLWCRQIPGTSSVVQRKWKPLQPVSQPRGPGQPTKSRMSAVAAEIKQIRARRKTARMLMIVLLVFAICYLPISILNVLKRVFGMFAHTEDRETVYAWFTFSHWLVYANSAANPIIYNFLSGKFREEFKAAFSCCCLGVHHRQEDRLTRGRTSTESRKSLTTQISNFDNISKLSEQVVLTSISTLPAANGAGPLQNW
As to the kind of experiment: Measurement of orexin type 2 receptor agonist activity (FLIPR calcium fluorescence). The assay is classed as cell-based. Conditions: CHO cells expressing hOX2R, FLIPR calcium fluorescence; for EC50: read-out: hOx2 pEC50 (converted); for Emax: CHO, read-out: hOx2 Emax (%). In short, it runs like this:
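Agonism was read as fluorescence in cells stably expressing human OX2R. E. is the response at 10 μM relative to orexin A as full agonist (100%).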

For orientation: Emax means the size of the effect at its maximum, as opposed to the concentration needed. As for `O=C([C@H]1CCO1)N1CC2(CC2)[C@H](NS(=O)(=O)CF)[C@@H]1Cc1cccc(-c2cccc(F)c2F)c1F` [Compound 168, 1-fluoro-N-((6S,7S)-5-((R)-oxetane-2-carbonyl)-6-((2,2′,3′-trifluoro-[1,1′-biphenyl]-3-yl)methyl)-5-azaspiro[2.4]heptan-7-yl)methanesulfonamide], the EC50 is 1 to 10 nM and the Emax is 90 to 100%.

For `O=C([C@H]1CCO1)N1CC2(CC2)[C@H](NS(=O)(=O)CF)[C@@H]1Cc1cccc(-c2cccc(C(F)F)c2)c1F` [Compound 196, N-((6S,7S)-6-((3′-(difluoromethyl)-2-fluoro-[1,1′-biphenyl]-3-yl)methyl)-5-((R)-oxetane-2-carbonyl)-5-azaspiro[2.4]heptan-7-yl)-1-fluoromethanesulfonamide], the EC50 is 0.0794 to 1 nM and the Emax was 90 to 100%.

On to `CS(=O)(=O)N[C@@H]1[C@H](Cc2cccc(-c3cccc(F)c3)c2)N(C(=O)[C@H]2CCO2)CC12CC2` [Compound 305], for which the EC50 was 10 to 100 nM and the Emax fell in the range of 90 to 100%.

Take `CN(CCC#N)C(=O)N1CC2(CC2)[C@H](NS(C)(=O)=O)[C@@H]1Cc1cccc(-c2ccccc2)c1F` [Compound 327, (6S,7S)-N-(2-cyanoethyl)-6-((2-fluoro-[1,1′-biphenyl]-3-yl)methyl)-N-methyl-7-(methylsulfonamido)-5-azaspiro[2.4]heptane-5-carboxamide]: the EC50 was 1 to 10 nM and the Emax is 90 to 100%.

In the case of `O=C([C@H](O)CF)N1CC2(CC2)[C@H](NS(=O)(=O)CF)[C@@H]1Cc1cc(F)cc(-c2cc(F)cc(F)c2)c1F` [Compound 373, 1-fluoro-N-((6S,7S)-5-((S)-3-fluoro-2-hydroxypropanoyl)-6-((2,3′,5,5′-tetrafluoro-[1,1′-biphenyl]-3-yl)methyl)-5-azaspiro[2.4]heptan-7-yl)methanesulfonamide], the EC50 was 1 to 10 nM and the Emax is 90 to 100%.

With `CS(=O)(=O)N[C@@H]1[C@H](Cc2cc(F)cc(-c3cccc(F)c3)c2F)N(C(=O)[C@H]2CCO2)CC12CC2` [Compound 122, N-((6S,7S)-5-((R)-oxetane-2-carbonyl)-6-((2,3′,5-trifluoro-[1,1′-biphenyl]-3-yl)methyl)-5-azaspiro[2.4]heptan-7-yl)methanesulfonamide], the EC50 is 0.0794 to 1 nM and the Emax lay within 90 to 100%.

As for `C[C@@H](NC(=O)N1CC2(CC2)[C@H](NS(=O)(=O)CF)[C@@H]1Cc1cccc(-c2ccccc2)c1F)C(F)F` [Compound 219, (6S,7S)-N-((R)-1,1-difluoropropan-2-yl)-6-((2-fluoro-[1,1′-biphenyl]-3-yl)methyl)-7-((fluoromethyl)sulfonamido)-5-azaspiro[2.4]heptane-5-carboxamide], the EC50 is 1 to 10 nM and the Emax lay in the range of 90 to 100%.

Take `CN(CC1CC1)C(=O)N1CC2(CC2)[C@H](NS(C)(=O)=O)[C@@H]1Cc1cccc(-c2ccccc2)c1F` [Compound 332, (6S,7S)-N-(cyclopropylmethyl)-6-((2-fluoro-[1,1′-biphenyl]-3-yl)methyl)-N-methyl-7-(methylsulfonamido)-5-azaspiro[2.4]heptane-5-carboxamide]: the EC50 was 1 to 10 nM and the Emax fell in the range of 90 to 100%.

`CS(=O)(=O)N[C@@H]1[C@H](Cc2cccc(-c3cc(F)cc(F)c3)c2F)N(C(=O)C2CCC2)CC12CC2` [Compound 33, N-((6S,7S)-5-(cyclobutanecarbonyl)-6-((2,3′,5′-trifluoro-[1,1′-biphenyl]-3-yl)methyl)-5-azaspiro[2.4]heptan-7-yl)methanesulfonamide]: the EC50 is 0.0794 to 1 nM and the Emax is 90 to 100%.

With `C[C@H](F)C(=O)N1CC2(CC2)[C@H](NS(C)(=O)=O)[C@@H]1Cc1cccc(-c2ccccc2)c1F` [Compound 346, N-((6S,7S)-6-((2-fluoro-[1,1′-biphenyl]-3-yl)methyl)-5-((S)-2-fluoropropanoyl)-5-azaspiro[2.4]heptan-7-yl)methanesulfonamide], the EC50 was 1 to 10 nM and the Emax was in the range of 90 to 100%.

Regarding `C[C@H]1C[C@@H]1S(=O)(=O)N[C@H]1[C@@H](Cc2cccc(-c3ccccc3)c2)N(C(=O)[C@H]2CCO2)CC12CC2` (relative stereo) [Compound 312, (1S*,2S*)-N-(6R,7R)-6-([1,1′-biphenyl]-3-ylmethyl)-5-((R)-oxetane-2-carbonyl)-5-azaspiro[2.4]heptan-7-yl)-2-methylcyclopropane-1-sulfonamide], the EC50 is 10 to 100 nM and the Emax was 90 to 100%.

In the case of `CN(C1CC1)S(=O)(=O)N[C@@H]1[C@H](Cc2cccc(-c3ccccc3)c2)N(C(=O)[C@H]2CCO2)CC12CC2` [Compound 97], the EC50 was 10 to 100 nM and the maximum response (Emax) was in the range of 80 to 90%.

Regarding `O=C(NCC(F)(F)F)N1CC2(CC2)[C@H](NS(=O)(=O)C(F)F)[C@@H]1Cc1cccc(-c2ccccc2)c1F` [Compound 200, (6S,7S)-7-((difluoromethyl)sulfonamido)-6-((2-fluoro-[1,1′-biphenyl]-3-yl)methyl)-N-(2,2,2-trifluoroethyl)-5-azaspiro[2.4]heptane-5-carboxamide], the EC50 is 1 to 10 nM and the Emax was 90 to 100%.

Turning to `N#CCS(=O)(=O)N[C@@H]1[C@H](Cc2cccc(-c3ccccc3)c2F)N(C(=O)[C@H]2CCO2)CC12CC2` [Compound 362, 1-cyano-N-((6S,7S)-6-((2-fluoro-[1,1′-biphenyl]-3-yl)methyl)-5-((R)-oxetane-2-carbonyl)-5-azaspiro[2.4]heptan-7-yl)methanesulfonamide], the EC50 is 10 to 100 nM and the Emax was in the range of 90 to 100%.

`O=C([C@H]1CCO1)N1CC2(CC2)[C@H](NS(=O)(=O)C2COC2)[C@@H]1Cc1cccc(-c2ccccc2)c1` [Compound 77, N-((6S,7S)-6-([1,1′-biphenyl]-3-ylmethyl)-5-((R)-oxetane-2-carbonyl)-5-azaspiro[2.4]heptan-7-yl)oxetane-3-sulfonamide]: the EC50 is 10 to 100 nM and the Emax fell in the range of 90 to 100%.

Regarding `CN(C)S(=O)(=O)N[C@@H]1[C@H](Cc2cccc(-c3ccccc3)c2F)N(C(=O)[C@H]2CCO2)CC12CC2` [Compound 64, N-((6S,7S)-6-((2-fluoro-[1,1′-biphenyl]-3-yl)methyl)-5-((R)-oxetane-2-carbonyl)-5-azaspiro[2.4]heptan-7-yl)-N,N-dimethylsulfuric diamide], the EC50 is 0.0794 to 1 nM and the Emax was in the range of 90 to 100%.

For the compound `CN(C)C(=O)N1CC2(CC2)[C@H](NS(C)(=O)=O)[C@@H]1Cc1cccc(-c2cc(F)cc(F)c2)c1` (racemic) [Compound 296, 6-((3′,5′-difluoro-[1,1′-biphenyl]-3-yl)methyl)-N,N-dimethyl-7-(methylsulfonamido)-5-azaspiro[2.4]heptane-5-carboxamide], the EC50 is 10 to 100 nM and the Emax was in the range of 90 to 100%.

For the compound `C[C@H](CF)NC(=O)N1CC2(CC2)[C@H](NS(C)(=O)=O)[C@@H]1Cc1cccc(-c2ccccc2)c1F` [Compound 101, (6S,7S)-6-((2-fluoro-[1,1′-biphenyl]-3-yl)methyl)-N-((R)-1-fluoropropan-2-yl)-7-(methylsulfonamido)-5-azaspiro[2.4]heptane-5-carboxamide], the EC50 was 0.0794 to 1 nM and the Emax lay in the range of 90 to 100%.

Turning to `CS(=O)(=O)N[C@@H]1[C@H](Cc2cccc(-c3ccccc3)c2F)N(C(=O)NC[C@@H]2CCOC2)CC12CC2` [Compound 329, (6S,7S)-6-((2-fluoro-[1,1′-biphenyl]-3-yl)methyl)-7-(methylsulfonamido)-N-(((S)-tetrahydrofuran-3-yl)methyl)-5-azaspiro[2.4]heptane-5-carboxamide], the EC50 is 1 to 10 nM and the Emax lay in the range of 90 to 100%.

On to `C[C@@H](F)C(=O)N1CC2(CC2)[C@H](NS(=O)(=O)C(F)F)[C@@H]1Cc1cc(F)cc(-c2cc(F)cc(F)c2)c1F` [Compound 406, 1,1-difluoro-N-((6S,7S)-5-((R)-2-fluoropropanoyl)-6-((2,3′,5,5′-tetrafluoro-[1,1′-biphenyl]-3-yl)methyl)-5-azaspiro[2.4]heptan-7-yl)methanesulfonamide], for which the EC50 was 0.0794 to 1 nM and the Emax lay in the range of 90 to 100%.

Regarding `CCNC(=O)N1CC2(CC2)[C@H](NS(=O)(=O)N(C)C)[C@@H]1Cc1cccc(-c2ccccc2)c1F` [Compound 121], the EC50 was 0.0794 to 1 nM and the Emax lay within 90 to 100%.

As to `O=C([C@H]1CCO1)N1CC2(CC2)[C@H](NS(=O)(=O)C(F)(F)F)[C@@H]1Cc1cccc(-c2ccccc2)c1F` [Compound 167, 1,1,1-trifluoro-N-((6S,7S)-6-((2-fluoro-[1,1′-biphenyl]-3-yl)methyl)-5-((R)-oxetane-2-carbonyl)-5-azaspiro[2.4]heptan-7-yl)methanesulfonamide], the EC50 was 10 to 100 nM and the Emax was 80 to 90%.

As for `O=C([C@H](O)C(F)(F)F)N1CC2(CC2)[C@H](NS(=O)(=O)CF)[C@@H]1Cc1cccc(-c2ccccc2)c1` [Compound 94, N-((6S,7S)-6-([1,1′-biphenyl]-3-ylmethyl)-5-((S)-3,3,3-trifluoro-2-hydroxypropanoyl)-5-azaspiro[2.4]heptan-7-yl)-1-fluoromethanesulfonamide], the EC50 is 1 to 10 nM and the maximal effect (Emax) was 90 to 100%.

The values above are taken from patent US12503475B2 (Centessa Pharmaceuticals (UK) Limited, priority 2020, dated 2025).
